The results in this text go back to patent US20080027006A1 (priority 2004, published 2008).

The target of the assay is HR-N and HR-C regions of the SARS-CoV S glycoprotein (Severe acute respiratory syndrome coronavirus, UniProt P59594). Format: binding, SARS coronavirus (Urbani strain).

In the case of `CC[C@H](C)[C@H](NC(=O)[C@H](C)NC(=O)[C@H](CCCCN)NC(=O)[C@H](CC(N)=O)NC(=O)[C@H](Cc1ccccc1)NC(=O)[C@H](CCC(N)=O)NC(=O)[C@H](CC(N)=O)NC(=O)[C@H](C)NC(=O)[C@@H](NC(=O)[C@H](CCC(N)=O)NC(=O)[C@H](CCCCN)NC(=O)[C@H](CCC(N)=O)NC(=O)[C@H](CC(N)=O)NC(=O)[C@H](CCC(=O)O)NC(=O)[C@H](Cc1ccc(O)cc1)NC(=O)[C@H](CC(C)C)NC(=O)[C@@H](NC(=O)[C@H](CC(N)=O)NC(=O)[C@H](CCC(N)=O)NC(C)=O)C(C)C)[C@@H](C)CC)C(=O)N[C@@H](CO)C(=O)N[C@@H](CCC(N)=O)C(=O)N[C@H](C(=O)N[C@@H](CCC(N)=O)C(=O)N[C@@H](CCC(=O)O)C(=O)N[C@@H](CO)C(=O)N[C@@H](CC(C)C)C(=O)N[C@H](C(=O)N[C@H](C(=O)N[C@H](C(=O)N[C@@H](CO)C(=O)N[C@H](C(=O)N[C@@H](C)C(=O)N[C@@H](CC(C)C)C(=O)NCC(=O)N[C@@H](CCCCN)C(N)=O)[C@@H](C)O)[C@@H](C)O)[C@@H](C)O)[C@@H](C)O)[C@@H](C)CC` [HR-N7], the “interaction with HR-C1 (in words)” value was “No interactions”.

With `CC[C@H](C)[C@H](NC(=O)[C@H](C)NC(=O)CNC(=O)[C@H](Cc1ccccc1)NC(=O)[C@H](CC(N)=O)NC(=O)[C@H](CO)NC(=O)[C@H](CO)NC(=O)[C@H](CC(C)C)NC(=O)[C@H](CCC(N)=O)NC(=O)[C@H](CCCCN)NC(=O)[C@@H](NC(=O)[C@H](CC(C)C)NC(=O)[C@@H](NC(=O)[C@H](CC(N)=O)NC(=O)[C@H](CC(C)C)NC(=O)[C@H](C)NC(=O)[C@H](CCC(N)=O)NC(=O)[C@H](C)NC(=O)[C@H](CC(N)=O)NC(=O)[C@H](CCC(N)=O)NC(=O)[C@H](CC(N)=O)NC(=O)[C@@H](NC(=O)[C@@H](NC(=O)[C@H](CC(=O)O)NC(=O)[C@H](CCC(N)=O)NC(=O)[C@H](CC(C)C)NC(=O)[C@H](CCCCN)NC(=O)CNC(=O)[C@H](CC(C)C)NC(=O)[C@H](C)NC(=O)[C@@H](NC(=O)[C@H](CO)NC(=O)[C@@H](NC(C)=O)[C@@H](C)O)[C@@H](C)O)C(C)C)C(C)C)[C@@H](C)O)C(C)C)C(=O)N[C@@H](CO)C(=O)N[C@@H](CO)C(N)=O` [HR-N11], the “interaction with HR-C1 (in words)” value is given as “absence of any observable interaction”. For `CC[C@H](C)[C@H](NC(C)=O)C(=O)N[C@@H](CCC(N)=O)C(=O)N[C@@H](CCC(=O)O)C(=O)N[C@@H](CO)C(=O)N[C@@H](CC(C)C)C(=O)N[C@H](C(=O)N[C@H](C(=O)N[C@H](C(=O)N[C@@H](CO)C(=O)N[C@H](C(=O)N[C@@H](C)C(=O)N[C@@H](CC(C)C)C(=O)NCC(=O)N[C@@H](CCCCN)C(=O)N[C@@H](CC(C)C)C(=O)N[C@@H](CCC(N)=O)C(=O)N[C@@H](CC(=O)O)C(=O)N[C@H](C(=O)N[C@H](C(=O)N[C@@H](CC(N)=O)C(=O)N[C@@H](CCC(N)=O)C(=O)N[C@@H](CC(N)=O)C(=O)N[C@@H](C)C(=O)N[C@@H](CCC(N)=O)C(=O)N[C@@H](C)C(=O)N[C@@H](CC(C)C)C(=O)N[C@@H](CC(N)=O)C(=O)N[C@H](C(=O)N[C@@H](CC(C)C)C(=O)N[C@H](C(=O)N[C@@H](CCCCN)C(=O)N[C@@H](CCC(N)=O)C(=O)N[C@@H](CC(C)C)C(=O)N[C@@H](CO)C(=O)N[C@@H](CO)C(N)=O)C(C)C)[C@@H](C)O)C(C)C)C(C)C)[C@@H](C)O)[C@@H](C)O)[C@@H](C)O)[C@@H](C)O` [HR-N10], the “induction of ellipticity at 222 nm with HR-C1” value is 9,600 degrees. As for `CC[C@H](C)[C@H](NC(=O)CNC(=O)[C@H](CC(N)=O)NC(=O)[C@H](Cc1ccccc1)NC(C)=O)C(=O)NCC(=O)N[C@H](C(=O)N[C@H](C(=O)N[C@@H](CCC(N)=O)C(=O)N[C@@H](CC(N)=O)C(=O)N[C@H](C(=O)N[C@@H](CC(C)C)C(=O)N[C@@H](Cc1ccc(O)cc1)C(=O)N[C@@H](CCC(=O)O)C(=O)N[C@@H](CC(N)=O)C(=O)N[C@@H](CCC(N)=O)C(=O)N[C@@H](CCCCN)C(=O)N[C@@H](CCC(N)=O)C(=O)N[C@H](C(=O)N[C@@H](C)C(=O)N[C@@H](CC(N)=O)C(=O)N[C@@H](CCC(N)=O)C(=O)N[C@@H](Cc1ccccc1)C(=O)N[C@@H](CC(N)=O)C(=O)N[C@@H](CCCCN)C(=O)N[C@@H](C)C(=O)N[C@H](C(=O)N[C@@H](CO)C(=O)N[C@@H](CCC(N)=O)C(=O)N[C@H](C(=O)N[C@@H](CCC(N)=O)C(=O)N[C@@H](CCC(=O)O)C(=O)N[C@@H](CO)C(=O)N[C@@H](CC(C)C)C(=O)N[C@H](C(=O)N[C@H](C(N)=O)[C@@H](C)O)[C@@H](C)O)[C@@H](C)CC)[C@@H](C)CC)[C@@H](C)CC)C(C)C)[C@@H](C)O)C(C)C` [HR-N6], the “interaction with HR-C1 (in words)” value is recorded as “No interactions”. Turning to `CC[C@H](C)[C@H](NC(=O)[C@H](C)NC(=O)[C@H](CCCCN)NC(=O)[C@H](CC(N)=O)NC(=O)[C@H](Cc1ccccc1)NC(=O)[C@H](CCC(N)=O)NC(=O)[C@H](CC(N)=O)NC(=O)[C@H](C)NC(=O)[C@@H](NC(=O)[C@H](CCC(N)=O)NC(=O)[C@H](CCCCN)NC(=O)[C@H](CCC(N)=O)NC(C)=O)[C@@H](C)CC)C(=O)N[C@@H](CO)C(=O)N[C@@H](CCC(N)=O)C(=O)N[C@H](C(=O)N[C@@H](CCC(N)=O)C(=O)N[C@@H](CCC(=O)O)C(=O)N[C@@H](CO)C(=O)N[C@@H](CC(C)C)C(=O)N[C@H](C(=O)N[C@H](C(=O)N[C@H](C(=O)N[C@@H](CO)C(=O)N[C@H](C(=O)N[C@@H](C)C(=O)N[C@@H](CC(C)C)C(=O)NCC(=O)N[C@@H](CCCCN)C(=O)N[C@@H](CC(C)C)C(=O)N[C@@H](CCC(N)=O)C(=O)N[C@@H](CC(=O)O)C(=O)N[C@H](C(=O)N[C@H](C(=O)N[C@@H](CC(N)=O)C(=O)N[C@@H](CCC(N)=O)C(N)=O)C(C)C)C(C)C)[C@@H](C)O)[C@@H](C)O)[C@@H](C)O)[C@@H](C)O)[C@@H](C)CC` [HR-N8], the “interaction with HR-C1 (in words)” value is on record as “No interactions”.

As to `CC[C@H](C)[C@H](NC(=O)[C@H](C)NC(=O)[C@H](CCCCN)NC(=O)[C@H](CC(N)=O)NC(=O)[C@H](Cc1ccccc1)NC(C)=O)C(=O)N[C@@H](CO)C(=O)N[C@@H](CCC(N)=O)C(=O)N[C@H](C(=O)N[C@@H](CCC(N)=O)C(=O)N[C@@H](CCC(=O)O)C(=O)N[C@@H](CO)C(=O)N[C@@H](CC(C)C)C(=O)N[C@H](C(=O)N[C@H](C(=O)N[C@H](C(=O)N[C@@H](CO)C(=O)N[C@H](C(=O)N[C@@H](C)C(=O)N[C@@H](CC(C)C)C(=O)NCC(=O)N[C@@H](CCCCN)C(=O)N[C@@H](CC(C)C)C(=O)N[C@@H](CCC(N)=O)C(=O)N[C@@H](CC(=O)O)C(=O)N[C@H](C(=O)N[C@H](C(=O)N[C@@H](CC(N)=O)C(=O)N[C@@H](CCC(N)=O)C(=O)N[C@@H](CC(N)=O)C(=O)N[C@@H](C)C(=O)N[C@@H](CCC(N)=O)C(=O)N[C@@H](C)C(=O)N[C@@H](CC(C)C)C(=O)N[C@@H](CC(N)=O)C(=O)N[C@H](C(N)=O)[C@@H](C)O)C(C)C)C(C)C)[C@@H](C)O)[C@@H](C)O)[C@@H](C)O)[C@@H](C)O)[C@@H](C)CC` [HR-N9], the “induction of ellipticity at 222 nm with HR-C1” value is given as 3,500 degrees. Turning to `CC[C@H](C)[C@H](NC(=O)[C@H](CCC(N)=O)NC(=O)[C@H](CO)NC(=O)[C@@H](NC(=O)[C@H](C)NC(=O)[C@H](CCCCN)NC(=O)[C@H](CC(N)=O)NC(=O)[C@H](Cc1ccccc1)NC(=O)[C@H](CCC(N)=O)NC(=O)[C@H](CC(N)=O)NC(=O)[C@H](C)NC(=O)[C@@H](NC(=O)[C@H](CCC(N)=O)NC(=O)[C@H](CCCCN)NC(=O)[C@H](CCC(N)=O)NC(=O)[C@H](CC(N)=O)NC(=O)[C@H](CCC(=O)O)NC(=O)[C@H](Cc1ccc(O)cc1)NC(=O)[C@H](CC(C)C)NC(=O)[C@@H](NC(=O)[C@H](CC(N)=O)NC(=O)[C@H](CCC(N)=O)NC(=O)[C@@H](NC(=O)[C@@H](NC(=O)CNC(=O)[C@@H](NC(=O)CNC(=O)[C@H](CC(N)=O)NC(=O)[C@H](Cc1ccccc1)NC(=O)[C@H](CCCNC(=N)N)NC(=O)[C@H](Cc1ccc(O)cc1)NC(=O)[C@H](C)NC(=O)[C@H](CCSC)NC(=O)[C@H](CCC(N)=O)NC(=O)[C@H](CCSC)NC(C)=O)[C@@H](C)CC)C(C)C)[C@@H](C)O)C(C)C)[C@@H](C)CC)[C@@H](C)CC)C(N)=O` [HR-N5], the “interaction with HR-C1 (in words)” value was “no detectable interaction”.
